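In this assay, cells in 96-well plates receive the compound at five concentrations for 48 hours. Endpoints are linearly interpolated between the surrounding concentrations. GI50 is the concentration that inhibits growth by half.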 Calls of active or inactive are those of the source. Cut-off read from the data, not from the text of the source: active = GI50 up to about 1.1 µM and inactive = higher.
Experiments:
Test in all cases: DTP human tumour cell line panel, 48 h
NCI-H226 = system: NCI-H226
COLO 205 = system: COLO 205
SW-620 = system: SW-620
ACHN = system: ACHN
HOP-62 = system: HOP-62
NCI-H460 = system: NCI-H460
DLD-1 = system: DLD-1
OVCAR-5 = system: OVCAR-5
U-251 = system: U-251
NCI-H23 = system: NCI-H23
XF498 = system: XF498
EKVX = system: EKVX
OVCAR-3 = system: OVCAR-3
DMS-273 = system: DMS-273
786-0 = system: 786-0
KM12 = system: KM12
M14 = system: M14
A498 = system: A498
SK-MEL-28 = system: SK-MEL-28
CAKI-1 = system: CAKI-1
HT-29 = system: HT-29
RPMI-8226 = system: RPMI-8226
SK-MEL-5 = system: SK-MEL-5
SNB-19 = system: SNB-19
IGROV-1 = system: IGROV-1
HCT-15 = system: HCT-15
SNB-78 = system: SNB-78
SK-OV-3 = system: SK-OV-3
SF-268 = system: SF-268
HCC 2998 = system: HCC 2998
UO-31 = system: UO-31
OVCAR-4 = system: OVCAR-4
LOX IMVI = system: LOX IMVI
LXFL 529 = system: LXFL 529
UACC-62 = system: UACC-62
UACC-257 = system: UACC-257
DMS-114 = system: DMS-114
M19-MEL = system: M19-MEL
OVCAR-8 = system: OVCAR-8
Malme-3M = system: Malme-3M
HOP-18 = system: HOP-18
RXF 393 = system: RXF 393
HL-60 = system: HL-60
SF-539 = system: SF-539
HCT-116 = system: HCT-116
NCI-H522 = system: NCI-H522
SK-MEL-2 = system: SK-MEL-2
A549 = system: A549
K562 = system: K562
SF-295 = system: SF-295
TK-10 = system: TK-10
KM-20L2 = system: KM-20L2
CCRF-CEM = system: CCRF-CEM
SNB-75 = system: SNB-75
HOP-92 = system: HOP-92
SN12C = system: SN12C
SR = system: SR
RXF 631 = system: RXF 631

Structure (SMILES): COC(=O)C1CCc2c1c(=O)n1c([nH]c3ccccc31)c2C#N (configuration not stated)
- GI50 (NCI-H226): > 100 µM (inactive)
- GI50 (COLO 205): > 100 µM (inactive)
- GI50 (SW-620): > 100 µM (inactive)
- GI50 (ACHN): > 100 µM (inactive)
- GI50 (HOP-62): > 100 µM (inactive)
- GI50 (NCI-H460): > 100 µM (inactive)
- GI50 (DLD-1): > 100 µM (inactive)
- GI50 (OVCAR-5): > 100 µM (inactive)
- GI50 (U-251): > 100 µM (inactive)
- GI50 (NCI-H23): > 100 µM (inactive)
- GI50 (XF498): > 100 µM (inactive)
- GI50 (EKVX): > 100 µM (inactive)
- GI50 (OVCAR-3): > 100 µM (inactive)
- GI50 (DMS-273): > 100 µM (inactive)
- GI50 (786-0): > 100 µM (inactive)
- GI50 (KM12): > 100 µM (inactive)
- GI50 (M14): > 100 µM (inactive)
- GI50 (A498): > 100 µM (inactive)
- GI50 (SK-MEL-28): > 100 µM (inactive)
- GI50 (CAKI-1): > 100 µM (inactive)
- GI50 (HT-29): > 100 µM (inactive)
- GI50 (RPMI-8226): > 100 µM (inactive)
- GI50 (SK-MEL-5): > 100 µM (inactive)
- GI50 (SNB-19): > 100 µM (inactive)
- GI50 (IGROV-1): > 100 µM (inactive)
- GI50 (HCT-15): > 100 µM
- GI50 (SNB-78): > 100 µM (inactive)
- GI50 (SK-OV-3): > 100 µM (inactive)
- GI50 (SF-268): > 100 µM (inactive)
- GI50 (HCC 2998): > 100 µM (inactive)
- GI50 (UO-31): > 100 µM (inactive)
- GI50 (OVCAR-4): > 100 µM (inactive)
- GI50 (LOX IMVI): > 100 µM (inactive)
- GI50 (LXFL 529): > 100 µM (inactive)
- GI50 (UACC-62): > 100 µM (inactive)
- GI50 (UACC-257): > 100 µM (inactive)
- GI50 (DMS-114): > 100 µM (inactive)
- GI50 (M19-MEL): > 100 µM (inactive)
- GI50 (OVCAR-8): > 100 µM (inactive)
- GI50 (Malme-3M): > 100 µM (inactive)
- GI50 (HOP-18): 2.36 µM (inactive)
- GI50 (RXF 393): > 100 µM (inactive)
- GI50 (HL-60): > 100 µM (inactive)
- GI50 (SF-539): > 100 µM (inactive)
- GI50 (HCT-116): > 100 µM (inactive)
- GI50 (NCI-H522): > 100 µM (inactive)
- GI50 (SK-MEL-2): > 100 µM (inactive)
- GI50 (A549): > 100 µM (inactive)
- GI50 (K562): > 100 µM (inactive)
- GI50 (SF-295): > 100 µM (inactive)
- GI50 (TK-10): > 100 µM (inactive)
- GI50 (KM-20L2): > 100 µM (inactive)
- GI50 (CCRF-CEM): > 100 µM (inactive)
- GI50 (SNB-75): > 100 µM (inactive)
- GI50 (HOP-92): > 100 µM (inactive)

Structure (SMILES): CC(C)NC(C)Cc1ccccc1 (configuration not stated)
- GI50 (NCI-H226): > 100 µM (inactive)
- GI50 (COLO 205): > 100 µM (inactive)
- GI50 (SW-620): > 100 µM (inactive)
- GI50 (ACHN): > 100 µM (inactive)
- GI50 (HOP-62): > 100 µM (inactive)
- GI50 (NCI-H460): > 100 µM (inactive)
- GI50 (DLD-1): > 100 µM (inactive)
- GI50 (SN12C): > 100 µM (inactive)
- GI50 (OVCAR-5): > 100 µM (inactive)
- GI50 (U-251): > 100 µM (inactive)
- GI50 (NCI-H23): > 100 µM (inactive)
- GI50 (EKVX): > 100 µM (inactive)
- GI50 (OVCAR-3): > 100 µM (inactive)
- GI50 (DMS-273): > 100 µM (inactive)
- GI50 (786-0): > 100 µM (inactive)
- GI50 (KM12): > 100 µM (inactive)
- GI50 (M14): > 100 µM (inactive)
- GI50 (A498): > 100 µM (inactive)
- GI50 (SK-MEL-28): > 100 µM (inactive)
- GI50 (CAKI-1): > 100 µM (inactive)
- GI50 (HT-29): > 100 µM (inactive)
- GI50 (RPMI-8226): > 100 µM (inactive)
- GI50 (SK-MEL-5): > 100 µM (inactive)
- GI50 (SR): > 100 µM (inactive)
- GI50 (SNB-19): > 100 µM (inactive)
- GI50 (IGROV-1): > 100 µM (inactive)
- GI50 (HCT-15): 3.97 µM
- GI50 (SNB-78): > 100 µM (inactive)
- GI50 (SK-OV-3): > 100 µM (inactive)
- GI50 (SF-268): > 100 µM (inactive)
- GI50 (HCC 2998): > 100 µM (inactive)
- GI50 (UO-31): > 100 µM (inactive)
- GI50 (OVCAR-4): > 100 µM (inactive)
- GI50 (LOX IMVI): > 100 µM (inactive)
- GI50 (LXFL 529): > 100 µM (inactive)
- GI50 (UACC-62): > 100 µM (inactive)
- GI50 (RXF 631): > 100 µM (inactive)
- GI50 (UACC-257): > 100 µM (inactive)
- GI50 (DMS-114): > 100 µM (inactive)
- GI50 (M19-MEL): > 100 µM (inactive)
- GI50 (OVCAR-8): > 100 µM (inactive)
- GI50 (Malme-3M): > 100 µM (inactive)
- GI50 (HOP-18): > 100 µM (inactive)
- GI50 (RXF 393): > 100 µM (inactive)
- GI50 (HL-60): > 100 µM (inactive)
- GI50 (SF-539): > 100 µM (inactive)
- GI50 (HCT-116): > 100 µM (inactive)
- GI50 (NCI-H522): > 100 µM (inactive)
- GI50 (SK-MEL-2): > 100 µM (inactive)
- GI50 (A549): > 100 µM (inactive)
- GI50 (K562): > 100 µM (inactive)
- GI50 (SF-295): > 100 µM (inactive)
- GI50 (TK-10): > 100 µM (inactive)
- GI50 (KM-20L2): > 100 µM (inactive)
- GI50 (CCRF-CEM): > 100 µM (inactive)
- GI50 (SNB-75): > 100 µM (inactive)
- GI50 (HOP-92): > 100 µM (inactive)

— ChEMBL document CHEMBL1201862, “PubChem BioAssay data set” (2004)
